Legend:
Assay in all cases: Weeding effect in post-emergence stage
Assay type in all cases: in vivo
Conditions in all cases: 250 g/ha; 2 leaf stage; 15 days after application; fresh weight control rate
[1] = tested on: Setaria viridis
Outline: (§1)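 Pot-grown weeds sprayed post-emergence at the 2-leaf stage, 2 weeks after sowing, with compound in acetone/Tween 80 plus 1.5 L/ha methyl oleate concentrate at 500–15 g/ha. Fresh-weight growth control scored after 15 days in greenhouse, mean of three replicates, graded levels 0–5 (5: >85%, 0: <5%).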

[2] = tested on: Echinochloa crusgali
Outline: as §1

[3] = tested on: Amaranthus retroflexus
Outline: as §1

[4] = tested on: Abutilon theophrasti
Outline: as §1

[5] = tested on: Digitaria sanguinalis
Outline: as §1

COc1c(C(=O)Nc2nnc(C)o2)ccc(C(F)(F)F)c1[S@+]([O-])CCC(C)(C)C [Compound 309]
weeding effect in post-emergence stage, activity level (growth control rate), Setaria viridis [1]: 5 (Level 5: growth control rate is above 85%) | weeding effect in post-emergence stage, activity level (growth control rate), Echinochloa crusgali [2]: 5 (Level 5: growth control rate is above 85%) | weeding effect in post-emergence stage, activity level (growth control rate), Amaranthus retroflexus [3]: 5 (Level 5: growth control rate is above 85%) | weeding effect in post-emergence stage, activity level (growth control rate), Abutilon theophrasti [4]: 5 (Level 5: growth control rate is above 85%) | weeding effect in post-emergence stage, activity level (growth control rate), Digitaria sanguinalis [5]: 5 (Level 5: growth control rate is above 85%)

C=CCC[S@@+]([O-])c1c(C(F)(F)F)ccc(C(=O)Nc2nnc(C)o2)c1OC [Compound 312]
weeding effect in post-emergence stage, activity level (growth control rate), Setaria viridis [1]: 5 (Level 5: growth control rate is above 85%) | weeding effect in post-emergence stage, activity level (growth control rate), Echinochloa crusgali [2]: 5 (Level 5: growth control rate is above 85%) | weeding effect in post-emergence stage, activity level (growth control rate), Amaranthus retroflexus [3]: 5 (Level 5: growth control rate is above 85%) | weeding effect in post-emergence stage, activity level (growth control rate), Abutilon theophrasti [4]: 5 (Level 5: growth control rate is above 85%) | weeding effect in post-emergence stage, activity level (growth control rate), Digitaria sanguinalis [5]: 5 (Level 5: growth control rate is above 85%)

CC=CC[S+]([O-])c1c(C(F)(F)F)ccc(C(=O)Nc2nnc(C)o2)c1OC (stereo not drawn) [Compound 313]
weeding effect in post-emergence stage, activity level (growth control rate), Setaria viridis [1]: 5 (Level 5: growth control rate is above 85%) | weeding effect in post-emergence stage, activity level (growth control rate), Echinochloa crusgali [2]: 5 (Level 5: growth control rate is above 85%) | weeding effect in post-emergence stage, activity level (growth control rate), Amaranthus retroflexus [3]: 5 (Level 5: growth control rate is above 85%) | weeding effect in post-emergence stage, activity level (growth control rate), Abutilon theophrasti [4]: 5 (Level 5: growth control rate is above 85%) | weeding effect in post-emergence stage, activity level (growth control rate), Digitaria sanguinalis [5]: 5 (Level 5: growth control rate is above 85%)

C#CC[S@@+]([O-])c1c(C(F)(F)F)ccc(C(=O)Nc2nnc(C)o2)c1OC [Compound 314]
weeding effect in post-emergence stage, activity level (growth control rate), Setaria viridis [1]: 5 (Level 5: growth control rate is above 85%) | weeding effect in post-emergence stage, activity level (growth control rate), Echinochloa crusgali [2]: 5 (Level 5: growth control rate is above 85%) | weeding effect in post-emergence stage, activity level (growth control rate), Amaranthus retroflexus [3]: 5 (Level 5: growth control rate is above 85%) | weeding effect in post-emergence stage, activity level (growth control rate), Abutilon theophrasti [4]: 5 (Level 5: growth control rate is above 85%) | weeding effect in post-emergence stage, activity level (growth control rate), Digitaria sanguinalis [5]: 5 (Level 5: growth control rate is above 85%)

C#CCC[S@@+]([O-])c1c(C(F)(F)F)ccc(C(=O)Nc2nnc(C)o2)c1OC [Compound 315]
weeding effect in post-emergence stage, activity level (growth control rate), Setaria viridis [1]: 5 (Level 5: growth control rate is above 85%) | weeding effect in post-emergence stage, activity level (growth control rate), Echinochloa crusgali [2]: 5 (Level 5: growth control rate is above 85%) | weeding effect in post-emergence stage, activity level (growth control rate), Amaranthus retroflexus [3]: 5 (Level 5: growth control rate is above 85%) | weeding effect in post-emergence stage, activity level (growth control rate), Abutilon theophrasti [4]: 5 (Level 5: growth control rate is above 85%) | weeding effect in post-emergence stage, activity level (growth control rate), Digitaria sanguinalis [5]: 5 (Level 5: growth control rate is above 85%)

CC#CC[S@@+]([O-])c1c(C(F)(F)F)ccc(C(=O)Nc2nnc(C)o2)c1OC [Compound 316]
weeding effect in post-emergence stage, activity level (growth control rate), Setaria viridis [1]: 5 (Level 5: growth control rate is above 85%) | weeding effect in post-emergence stage, activity level (growth control rate), Echinochloa crusgali [2]: 5 (Level 5: growth control rate is above 85%) | weeding effect in post-emergence stage, activity level (growth control rate), Amaranthus retroflexus [3]: 5 (Level 5: growth control rate is above 85%) | weeding effect in post-emergence stage, activity level (growth control rate), Abutilon theophrasti [4]: 5 (Level 5: growth control rate is above 85%) | weeding effect in post-emergence stage, activity level (growth control rate), Digitaria sanguinalis [5]: 5 (Level 5: growth control rate is above 85%)

COc1c(C(=O)Nc2nnc(C)o2)ccc(C(F)(F)F)c1[S@+]([O-])CCF [Compound 319]
weeding effect in post-emergence stage, activity level (growth control rate), Setaria viridis [1]: 5 (Level 5: growth control rate is above 85%) | weeding effect in post-emergence stage, activity level (growth control rate), Echinochloa crusgali [2]: 5 (Level 5: growth control rate is above 85%) | weeding effect in post-emergence stage, activity level (growth control rate), Amaranthus retroflexus [3]: 5 (Level 5: growth control rate is above 85%) | weeding effect in post-emergence stage, activity level (growth control rate), Abutilon theophrasti [4]: 5 (Level 5: growth control rate is above 85%) | weeding effect in post-emergence stage, activity level (growth control rate), Digitaria sanguinalis [5]: 5 (Level 5: growth control rate is above 85%)

COc1c(C(=O)Nc2nnc(C)o2)ccc(C(F)(F)F)c1[S@+]([O-])CCCF [Compound 320]
weeding effect in post-emergence stage, activity level (growth control rate), Setaria viridis [1]: 5 (Level 5: growth control rate is above 85%) | weeding effect in post-emergence stage, activity level (growth control rate), Echinochloa crusgali [2]: 5 (Level 5: growth control rate is above 85%) | weeding effect in post-emergence stage, activity level (growth control rate), Amaranthus retroflexus [3]: 5 (Level 5: growth control rate is above 85%) | weeding effect in post-emergence stage, activity level (growth control rate), Abutilon theophrasti [4]: 5 (Level 5: growth control rate is above 85%) | weeding effect in post-emergence stage, activity level (growth control rate), Digitaria sanguinalis [5]: 5 (Level 5: growth control rate is above 85%)

COc1c(C(=O)Nc2nnc(C)o2)ccc(C(F)(F)F)c1[S@@+]([O-])C(F)F [Compound 322]
weeding effect in post-emergence stage, activity level (growth control rate), Setaria viridis [1]: 5 (Level 5: growth control rate is above 85%) | weeding effect in post-emergence stage, activity level (growth control rate), Echinochloa crusgali [2]: 5 (Level 5: growth control rate is above 85%) | weeding effect in post-emergence stage, activity level (growth control rate), Amaranthus retroflexus [3]: 5 (Level 5: growth control rate is above 85%) | weeding effect in post-emergence stage, activity level (growth control rate), Abutilon theophrasti [4]: 5 (Level 5: growth control rate is above 85%) | weeding effect in post-emergence stage, activity level (growth control rate), Digitaria sanguinalis [5]: 5 (Level 5: growth control rate is above 85%)

COc1c(C(=O)Nc2nnc(C)o2)ccc(C(F)(F)F)c1[S@+]([O-])CC(F)F [Compound 323]
weeding effect in post-emergence stage, activity level (growth control rate), Setaria viridis [1]: 5 (Level 5: growth control rate is above 85%) | weeding effect in post-emergence stage, activity level (growth control rate), Echinochloa crusgali [2]: 5 (Level 5: growth control rate is above 85%) | weeding effect in post-emergence stage, activity level (growth control rate), Amaranthus retroflexus [3]: 5 (Level 5: growth control rate is above 85%) | weeding effect in post-emergence stage, activity level (growth control rate), Abutilon theophrasti [4]: 5 (Level 5: growth control rate is above 85%) | weeding effect in post-emergence stage, activity level (growth control rate), Digitaria sanguinalis [5]: 5 (Level 5: growth control rate is above 85%)

COc1c(C(=O)Nc2nnc(C)o2)ccc(C(F)(F)F)c1[S@+]([O-])CC(F)(F)F [Compound 324]
weeding effect in post-emergence stage, activity level (growth control rate), Setaria viridis [1]: 5 (Level 5: growth control rate is above 85%) | weeding effect in post-emergence stage, activity level (growth control rate), Echinochloa crusgali [2]: 5 (Level 5: growth control rate is above 85%) | weeding effect in post-emergence stage, activity level (growth control rate), Amaranthus retroflexus [3]: 5 (Level 5: growth control rate is above 85%) | weeding effect in post-emergence stage, activity level (growth control rate), Abutilon theophrasti [4]: 5 (Level 5: growth control rate is above 85%) | weeding effect in post-emergence stage, activity level (growth control rate), Digitaria sanguinalis [5]: 5 (Level 5: growth control rate is above 85%)

COc1c(C(=O)Nc2nnc(C)o2)ccc(C(F)(F)F)c1[S@+]([O-])CCC(F)(F)F [Compound 325]
weeding effect in post-emergence stage, activity level (growth control rate), Setaria viridis [1]: 5 (Level 5: growth control rate is above 85%) | weeding effect in post-emergence stage, activity level (growth control rate), Echinochloa crusgali [2]: 5 (Level 5: growth control rate is above 85%) | weeding effect in post-emergence stage, activity level (growth control rate), Amaranthus retroflexus [3]: 5 (Level 5: growth control rate is above 85%) | weeding effect in post-emergence stage, activity level (growth control rate), Abutilon theophrasti [4]: 5 (Level 5: growth control rate is above 85%) | weeding effect in post-emergence stage, activity level (growth control rate), Digitaria sanguinalis [5]: 5 (Level 5: growth control rate is above 85%)

Source: US12643871B2, “Aryl formamide compound containing chiral sulfur oxide or salt thereof, preparation method, herbicidal composition and use thereof” (Qingdao Kingagroot Chemical Compound Co., Ltd., priority 2019, dated 2026)
